Experimental data published in ChEMBL document CHEMBL5030519, “A "Two-Birds-One-Stone" Approach toward the Design of Bifunctional Human Immunodeficiency Virus Type 1 Entry Inhibitors Targeting the CCR5 Coreceptor and gp41 N-Terminal Heptad Repeat Region” (J Med Chem, 2021).
Residues, ends and D or L forms follow the SMILES beside them. Groups on a side chain read outwards from the residue. *: point of attachment. X1 = CC(=O)N1CCC(C(=O)N(CCCN2CCC(Cc3ccc(C(=O)*)cc3)CC2)c2ccc(C)c(Cl)c2)CC1; PEG12 = NCCOCCOCCOCCOCCOCCOCCOCCOCCOCCOCCOCCOCCC(=O)O

How the values were obtained:
[1] = test system: Human immunodeficiency virus 1; format: functional, organism-based, V38E/N42S; conditions: cemx174 5.25m7
[2] = test system: Human immunodeficiency virus 1; format: functional, organism-based, D36G; conditions: cemx174 5.25m7
[3] = test system: Human immunodeficiency virus 1; format: functional, organism-based; conditions: Human immunodeficiency virus 1, BaL (subtype B, R5), CEMx174 5.25M7, 144 h
[4] = test system: Human immunodeficiency virus 1; format: functional, organism-based, N427/N43K; conditions: cemx174 5.25m7
[5] = test system: Human immunodeficiency virus 1; format: functional, organism-based, V38A/N427; conditions: cemx174 5.25m7

Row | Compound | EC50 [1] | EC50 [2] | EC50 [3] | EC50 [4] | EC50 [5]
1 | enfuvirtide | 261 nM | 4.31 nM | 1.58 nM | 673 nM | 656 nM
2 | CC[C@H](C)[C@H](NC(=O)[C@H](CC(C)C)NC(=O)[C@H](CO)NC(=O)[C@H](Cc1cnc[nH]1)NC(=O)[C@@H](NC(=O)[C@H](CC(C)C)NC(=O)[C@H](CO)NC(=O)[C@@H](NC(=O)[C@H](Cc1ccc(O)cc1)NC(=O)[C@H](CC(N)=O)NC(=O)[C@H](CC(N)=O)NC(C)=O)[C@@H](C)O)[C@@H](C)CC)C(=O)N[C@@H](CCC(=O)O)C(=O)N[C@@H](CCC(=O)O)C(=O)N[C@@H](CO)C(=O)N[C@@H](CCC(N)=O)C(=O)N[C@@H](CC(N)=O)C(=O)N[C@@H](CCC(N)=O)C(=O)N[C@@H](CCC(N)=O)C(=O)N[C@@H](CCC(=O)O)C(=O)N[C@@H](CCCCN)C(=O)N[C@@H](CC(N)=O)C(=O)N[C@@H](CCC(=O)O)C(=O)N[C@@H](CCC(N)=O)C(=O)N[C@@H](CCC(=O)O)C(=O)N[C@@H](CC(C)C)C(=O)N[C@@H](CC(C)C)C(=O)N[C@@H](CCCCNC(=O)CCOCCOCCOCCOCCOCCOCCOCCOCCOCCOCCOCCOCCNC(=O)c1ccc(CC2CCN(CCCN(C(=O)C3CCN(C(C)=O)CC3)c3ccc(C)c(Cl)c3)CC2)cc1)C(N)=O (Ac-NNYTSLIHSLIEESQNQQEKNEQELLK([PEG12-X1])-NH2) |  |  | > 50 nM |  | 
